Where a SMILES comes first, the peptide text is derived from it. Where no end group is shown, it is not given here. The star is where a group is joined. 4‑pentenoyl = C=CCCC(=O)*
Columns and labels:
[1] = system: CHO[HIVe] (clone 7d2) cells expressing HXB2 envelope and tat cocultured with U373-MAGI cells; format: cell-based, HIV-1
Experimental: Cell-cell fusion (i.e., syncytium formation) was assayed by coculturing CHO[HIVe] (clone 7d2) cells expressing HXB2 envelope and tat with U373-MAGI cells (M. Emerman and A. Geballe, National Institutes of Health AIDS Research and Reference Reagent Program) in the presence of different concentrations of peptides 1-10. Cell fusion allows the expression of nuclear β-galactosidase from the U373-MAGI indicator cell line and can be quantitated by monitoring β-galactosidase activity. After an overnight incubation at 37° C. after coculture, β-galactosidase enzymatic activity was measured with the Mammalian β-galactosidase Chemiluminescent Assay Kit (Gal-Screen from Applied Biosystems). The peptide inhibitor concentrations at which activities were reduced by 50% (IC50) relative to control samples lacking peptide inhibitor were calculated by fitting data to the variable-slope-sigmoid equation using the Prism program.
Cell-cell fusion (i.e., syncytium formation) was assayed by co-culturing CHO[HIVe] […] Cell fusion allows the expression of nuclear β-galactosidase from the U373-MAGI indicator cell line and can be quantitated by monitoring β-galactosidase activity.

[2] = molecular target: IZN17 (stable model of the gp41 N-terminal three strand coiled-coil); assay: Fluorescence polarization-based competitive binding assay (displacement of fluorescein-labeled peptide 12 from IZN17); parameters: species or system HIV-1; details: for Binding to IZN17, result in words: fluorescence polarization competition with probe 12
[3] = Circular dichroism spectroscopy (helicity); format: physicochemical; details: 10% trifluoroethanol in PBS buffer
Experimental: CD spectra were recorded on an AVIV 202SF CD spectrometer equipped with a temperature controller using 1 mm length cells and a scan speed of 5 nm/min. The spectra were averaged over 10 scans with the baseline subtracted from analogous conditions as that for the samples. The samples were prepared in 0.1× phosphate buffered saline (13.7 mM NaCl, 1 mM phosphate, 0.27 mM KCl, pH 7.4), containing 10% trifluoroethanol, with the final peptide concentration of 50-100 μM. The concentrations of unfolded peptides were determined by the UV absorption of the tyrosine residue at 276 nm in 6.0 M guanidinium hydrochloride aqueous solution. The helix content of each peptide was determined from the mean residue CD at 222 nm, [θ]222 (deg cm^2 dmol^−1) corrected for the number of amino acids. Percent helicity was calculated from the ratio [θ]222/[θ]max, where [θ]max=(−44000+250T)(1−k/n), with k=4.0 and n=number of residues. For details on θmax calculations for HBS helices, see Wang et al., “Evaluation of Biologically Relevant Short α-Helices Stabilized by a Main-chain Hydrogen-bond Surrogate,” J. Am. Chem. Soc. 128:9248-56 (2006), which is hereby incorporated by reference in its entirety.
It was conjectured that stabilization of this peptide in helical conformation with the HBS approach may increase its helicity and affinity for IZN17. […]

[4] = system: CHO[HIVe] (clone 7d2) cells expressing HXB2 envelope and tat cocultured with U373-MAGI cells; details: literature report; cited from earlier work
[5] = molecular target: IZN17 (stable model of the gp41 N-terminal three strand coiled-coil); assay: Saturation binding of fluorescein-labeled peptide 12 with IZN17 (fluorescence polarization); parameters: species or system HIV-1; details: saturation binding curve, PBS buffer at 25° C.
Experimental: FIG. 14 is a graph showing the saturation binding curve of fluorescein-labeled peptide 12 with IZN17 in PBS buffer at 25° C.
The relative affinity of peptides 1-10 for IZN17 (i.e., peptide 11) was determined using a fluorescence polarization-based competitive binding assay (Eckert & Kim, “Design of Potent Inhibitors of HIV-1 Entry from the gp41 N-Peptide Region,” Proc. Nat'l Acad. Sci. U.S.A. 98:11187-92 (2001); Stephens et al., “Inhibiting HIV Fusion with a β-Peptide Foldamer,” J. Am. Chem. Soc. 127:13126-7 (2005), which are hereby incorporated by reference in their entirety) with fluorescein-labeled peptide 12, shown in FIG. 13. FIG. 14 is a graph showing the saturation binding curve of fluorescein-labeled peptide 12 with IZN17 in PBS buffer at 25° C.
A previously described fluorescence polarization assay was utilized to determine the in vitro binding affinity of unconstrained peptides and HBS helices for a stable model of the gp41 N-terminal three strand coiled-coil, IZN17, which contains the binding site for residues W628, W631, and 1635 (see Example 3, supra) (Eckert & Kim, “Design of Potent Inhibitors of HIV-1 Entry from the gp41 N-Peptide Region,” Proc. Nat'l Acad. Sci. U.S.A. 98:11187-92 (2001), which is hereby incorporated by reference in its entirety). […]

**Q.** With `CC[C@H](C)[C@H](NC(=O)[C@H](CCCCN)NC(=O)[C@H](CCCCN)NC(=O)[C@@H](NC(=O)[C@H](Cc1ccc(O)cc1)NC(=O)[C@H](CCC(=O)O)NC(=O)[C@H](CCC(=O)O)NC(=O)[C@@H](NC(=O)[C@H](CCCCN)NC(=O)[C@H](CCCCN)NC(=O)[C@H](CC(=O)O)NC(=O)[C@H](Cc1c[nH]c2ccccc12)NC(=O)[C@H](CCC(=O)O)NC(=O)[C@H](CCC(=O)O)NC(=O)[C@H](Cc1c[nH]c2ccccc12)N1CC=CCCC(=O)N[C@@H](CCSC)C(=O)N[C@@H]([C@@H](C)O)C1=O)[C@@H](C)CC)[C@@H](C)O)C(N)=O` [compound 9, XMTWEEWDKKIEEYTKKI] as the compound, how does the EC50 ([1]; overnight coculture at 37° C., β-galactosidase readout, read-out: EC50, inhibition of gp41-mediated cell fusion) read?
**A.** The EC50 was 43 µM.

**Q.** What does the source list for `CC[C@H](C)[C@H](NC(=O)[C@H](CCC(=O)O)NC(=O)[C@H](CCCNC(=N)N)NC(=O)[C@H](CC(=O)O)NC(=O)[C@H](Cc1c[nH]c2ccccc12)NC(=O)[C@H](CCC(=O)O)NC(=O)[C@H](CCSC)NC(=O)[C@H](Cc1c[nH]c2ccccc12)NC(=O)[C@@H](NC(=O)[C@H](CCSC)NC(C)=O)[C@@H](C)O)C(=O)N[C@@H](CC(N)=O)C(=O)N[C@@H](CC(N)=O)C(=O)N[C@@H](Cc1ccc(O)cc1)C(=O)N[C@H](C(N)=O)[C@@H](C)O` [peptide 1, AcMTWMEWDREINNYT-NH2, reference compound] (Ac-MTWMEWDREINNYT-NH2)?
**A.** Kd ([2]; PBS pH 7.4, 0.1% pluronic F-68, 25° C., 25 μM IZN17, 15 nM probe 12, values much lower than probe Kd are upper limits, read-out: Kd, binding affinity for IZN17 (competition assay)): 37 µM; Helicity by CD, result in words [3]: unstructured or very weakly helical; Activity in cell-cell fusion assays as previously shown (Sia et al.) [4]: ineffective in cell-cell fusion assays

**Q.** What does the source list for `CC[C@H](C)[C@H](NC(=O)[C@H](CCCCN)NC(=O)[C@H](CCCCN)NC(=O)[C@@H](NC(=O)[C@H](Cc1ccc(O)cc1)NC(=O)[C@H](CCC(=O)O)NC(=O)[C@H](CCC(=O)O)NC(=O)[C@@H](NC(=O)[C@H](CCCCN)NC(=O)[C@H](CCCCN)NC(=O)[C@H](CC(=O)O)NC(=O)[C@H](Cc1c[nH]c2ccccc12)NC(=O)[C@H](CCC(=O)O)NC(=O)[C@H](CCC(=O)O)NC(=O)[C@H](Cc1c[nH]c2ccccc12)NC(=O)[C@@H](NC(=O)[C@H](CCSC)NC(C)=O)[C@@H](C)O)[C@@H](C)CC)[C@@H](C)O)C(N)=O` [peptide 10, AcMTWEEWDKKIEEYTKKI—NH2] (Ac-MTWEEWDKKIEEYTKKI-NH2)?
**A.** Binding to IZN17, result in words [2]: bound IZN17 with a similar affinity as 9; Cell fusion inhibition, result in words ([1]; concentrations up to 200 μM): remained ineffective in the cell culture assay

**Q.** With “Suc-MTWMEWDERINNYTC^Flu-NH2 [peptide 12]” as the compound, how does the Kd [5] read?
**A.** Its Kd is 24 µM.

**Q.** For “XMTWMEWDREINNYT ({4‑pentenoyl}-MTWMEWDREINNYT; staple (positions not given here); also: hydrogen bond surrogate, N-allyl residue position not given here) [compound 2]”, which “Binding to IZN17, result in words” value [2] is on record?
**A.** The value was “did not bind the target protein with higher affinity”.
